# Test results taken from the NIST ThermoML archive (doi:10.1016/j.tca.2016.06.023).
# ± gives the expanded uncertainty stated by the source.
# Experiments:
# [1] = refractive index (Na D-line) (dimensionless); xn = mol fraction of the nth substance listed; details: 81.5 kPa, Liquid, Standard Abbe refractometry
# [2] = xn = mol fraction of the nth substance listed; details: 81.5 kPa, Liquid, Vibrating tube method
Compound,"refractive index ([1]; 293.15 K, x1 = 1)","refractive index ([1]; 303.15 K, x1 = 1)","refractive index ([1]; 313.15 K, x1 = 1)","refractive index ([1]; 323.15 K, x1 = 1)","refractive index ([1]; 333.15 K, x1 = 1)","mass density ([2]; 293.15 K, x1 = 1) [kg/m3]","mass density ([2]; 303.15 K, x1 = 1) [kg/m3]","mass density ([2]; 313.15 K, x1 = 1) [kg/m3]","mass density ([2]; 323.15 K, x1 = 1) [kg/m3]","mass density ([2]; 333.15 K, x1 = 1) [kg/m3]","refractive index ([1]; 293.15 K, x2 = 0)","refractive index ([1]; 303.15 K, x2 = 0)","refractive index ([1]; 313.15 K, x2 = 0)","refractive index ([1]; 323.15 K, x2 = 0)","refractive index ([1]; 333.15 K, x2 = 0)","mass density ([2]; 293.15 K, x2 = 0) [kg/m3]","mass density ([2]; 303.15 K, x2 = 0) [kg/m3]","mass density ([2]; 313.15 K, x2 = 0) [kg/m3]","mass density ([2]; 323.15 K, x2 = 0) [kg/m3]","mass density ([2]; 333.15 K, x2 = 0) [kg/m3]"
Clc1ccccc1 [chlorobenzene] + Brc1ccccc1,1.52455 ± 0.01,1.51902 ± 0.01,1.51346 ± 0.01,1.50781 ± 0.01,1.50223 ± 0.01,1106.49 ± 10,1095.71 ± 10,1084.86 ± 10,1073.96 ± 10,1063.01 ± 10,,,,,,,,,,
O=[N+]([O-])c1ccccc1 [nitrobenzene] + Brc1ccccc1,,,,,,,,,,,1.55241 ± 0.01,1.54763 ± 0.01,1.54288 ± 0.01,1.53795 ± 0.01,1.53289 ± 0.01,1203.05 ± 10,1193.15 ± 10,1183.21 ± 10,1173.27 ± 10,1163.32 ± 10
O=[N+]([O-])c1ccccc1 [nitrobenzene] + Clc1ccccc1,,,,,,,,,,,1.55241 ± 0.01,1.54763 ± 0.01,1.54288 ± 0.01,1.53795 ± 0.01,1.53289 ± 0.01,1203.05 ± 10,1193.15 ± 10,1183.21 ± 10,1173.27 ± 10,1163.32 ± 10
